Holding throughout (format): in vivo
The test system of experiment [1] is housefly (Musca domestica). Put plainly: Test Method 8: coated container contact test, housefly. Particulars: 24 h, 40 mg/m^2, female adults, after one (1) day, 25°C, read-out: mortality of insects. As to the method:
(§1) Next, an efficacy of the present compound on controlling harmful arthropods is shown by Test examples. The following tests in the test examples below were conducted at 25°C.
Acetone solution in which test compounds are adjusted to 800 ppm are prepared, and the solution is poured into a container having an internal volume of 20 mL, and the solution is coated uniformly on an inner face of the container such that the test compound is made to be 40 mg/m^2, and the container is then dried.
Five (5) housefly (Musca domestica) female adults are placed in the container, and the cup is covered with the lid. After the prescribed timing is passed, the state of the housefly is examined, and the mortality of insects is calculated by the following equation. [formula]

In experiment [2] the test system is diamondback moth (Plutella xylostella). Put plainly: Test Method 10: sprayed cabbage seedling, third instar diamondback moth (Formulation example 5). Particulars: 144 h, third instar larvae, after 6 days, 25°C, read-out: controlling value.
The test system of experiment [3] is cotton worm (Spodoptera litura). Put plainly: Test Method 9: sprayed cabbage seedling, third instar cotton worm (Formulation example 5). To be noted: 144 h, third instar larvae, after 6 days, 25°C, read-out: controlling value.
The subject of experiment [4] is Western corn rootworms (Diabrotica virgifera virgifera). As to the kind of experiment: Test Method 5: corn seedling immersion, Western corn rootworm. To be noted: 120 h, read-out: mortality of insects. On the procedure: as §1
Each 1 mg of the test compounds is dissolved into 50 µL of a mixed solution of polyoxyethylene sorbitan monolaurate and acetone (polyoxyethylene sorbitan monolaurate: acetone = 5 : 95 (v/v ratio)). Thereto is added water containing 0.03% by volume of Shindain (registered trademark) to prepare a diluted solution containing a prescribed concentration of the test compound.
A young entire seedling of Corns (Zea mays) is immersed into the diluted solution for 30 seconds. Thereafter, each two grains of the seedlings are installed in a plastic petri dish ([…]), and 10 Western corn rootworms (Diabrotica virgifera virgifera) at the second instar larval stage are released into the dish. After 5 days, the number of the dead insects is counted, and the mortality of insects is calculated by the following equation. Mortality(%) = (Numberofdeadinsects/10) × 100 [formula]

The subject of experiment [5] is cotton aphids (Aphis gossypii). Put plainly: Test Method 1: foliar spray on cucumber seedling infested with cotton aphids (Formulation example 1). To be noted: 120 h, spray 10 mL/seedling, examined after 5 days, 25°C, read-out: controlling value.
Experiment [6] concerns cotton worm (Spodoptera litura). As to the kind of experiment: Test Method 3: sprayed cabbage leaves fed to second instar cotton worm. Particulars: 120 h, second instar larvae, after 5 days, 25°C, read-out: mortality of insects.
For experiment [7], the system named is diamondback moth (Plutella xylostella). As to the kind of experiment: Test Method 4: sprayed cabbage leaves fed to second instar diamondback moth. To be noted: 120 h, second instar larvae, after 5 days, 25°C, read-out: mortality of insects.
Experiment [8] relates to common house mosquitos (Culex pipiens pallens). Put plainly: Test Method 12: mosquito larvae released into diluted solution. To be noted: 24 h, last instar larvae, after 1 day, 25°C, read-out: controlling value. On the procedure: The following tests in the test examples below were conducted at 25°C.
Into the diluted solution, 30 common house mosquitos (Culex pipiens pallens) at the last instar larval stage are released, and after 1 day, the state of the house mosquito larvae is examined, and the mortality of insects is calculated by the following equation. [formula]

For experiment [9], the system named is cotton aphids (Aphis gossypii). As to the kind of experiment: Test Method 11: foliar spray on cucumber seedling infested with cotton aphids (Formulation example 5). Particulars: 120 h, spray 10 mL/seedling, examined after 5 days, 25°C, read-out: controlling value.
Experiment [10] concerns German cockroach (Blattella germanica). Put plainly: Test Method 6: coated container contact test, German cockroach. To be noted: 72 h, read-out: mortality of insects. On the procedure:
as §1
Acetone solution in which test compounds are adjusted to 800 ppm are prepared, and the solution is poured into a container having an internal volume of 50 mL, and the solution is coated uniformly on an inner face of the container such that the test compound is made to be 40 mg/m^2, and the container is then dried.
Five (5) German cockroach (Blattella germanica) male adults are placed in the container, and the cup is covered with the lid. After the prescribed timing is passed, the state of the German cockroach is examined, and the mortality of insects is calculated by the following equation. [formula]

Where only a bound is given, the exact number is not on record here.

As for `CCS(=O)(=O)c1c(C(=O)N(C)c2nc3cc(F)c(F)cc3s2)nc2ccc(I)cn12` [compound 34], the mortality at 40 mg/m2 in experiment [1] was no less than 80%. The mortality at 50 ppm in experiment [2] was no less than 80%; in [3], no less than 80%; in experiment [9] (50 ppm), no less than 90%. In addition, the mortality at 200 ppm in experiment [2] is no less than 80%; in experiment [3], no less than 80%; in experiment [4] it was no less than 80%; in experiment [9] it was no less than 90%. Further, the mortality at 500 ppm in [5] is no less than 90%; in [6], no less than 80%; in [7], no less than 80%. In addition, the mortality at 3.5 ppm in experiment [8] is no less than 90%.

`CCS(=O)(=O)c1c(C(=O)N(C)c2nc3cc(F)c(F)c(F)c3s2)nc2ccc(Br)cn12` [compound 44]: the mortality at 40 mg/m2 in experiment [1] and in [10] was no less than 80% each time. Besides, the mortality at 50 ppm in experiment [2] and in experiment [3] was no less than 80% in each case. Further, the mortality at 200 ppm in experiment [2] is no less than 80%; in experiment [3], no less than 80%; in [9], no less than 90%. Moreover, the mortality at 500 ppm in experiment [5] was no less than 90%; in [6], no less than 80%; in experiment [7], no less than 80%. In addition, the mortality at 3.5 ppm in experiment [8] is no less than 90%.

The record behind these values is patent EP4722205A1, “HETEROCYCLIC COMPOUND AND NOXIOUS ARTHROPOD-CONTROLLING COMPOSITION CONTAINING SAME” (Sumitomo Chemical Company, Limited, priority 2023, dated 2024).
